From the supplement of paper PMC10883282
± gives the standard deviation of the averaged measurements.

Tests used:
Experiment in all cases: relative viability vs DMSO control (72 h) (fraction); higher = more viable cells
[1] = test system: SYO-1
Procedure, shortened: (§1)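 Relative viability is percent growth read by ATPLite and averaged over up to triplicate wells. Sarcoma cells were seeded in 384-well plates to reach 80–90% confluence and given 2.5 µl of serially diluted compound after 24 h, from source plates of 10 mM to 0.0002 mM. Incubation lasted 72 h at 37 °C, 5% CO2, with 0.1% DMSO vehicle and a 5 µM positive control, and the data were rescaled so 1 equals full and 0 equals none.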

[2] = test system: SK-LMS-1
Procedure, shortened: as §1

[3] = test system: RD
Procedure, shortened: as §1

[4] = test system: HS729
Procedure, shortened: as §1

[5] = test system: SK-ES-1
Procedure, shortened: as §1

[6] = test system: A204
Procedure, shortened: as §1

[7] = test system: VA-ES-BJ
Procedure, shortened: as §1

[8] = test system: KHOS-NP
Procedure, shortened: as §1

[9] = test system: SW872
Procedure, shortened: as §1

[10] = test system: MES-SA
Procedure, shortened: as §1

[11] = test system: G401
Procedure, shortened: as §1

[12] = test system: SW684
Procedure, shortened: as §1

CCCCCCCCCCCCCCCCCCOP(=O)([O-])OC1CC[N+](C)(C)CC1 [Perifosine]
Conditions	relative viability
[1], 0.00017 µM	1.01 ± 0.026
[1], 0.00051 µM	1.012 ± 0.01
[1], 0.00152 µM	0.99 ± 0.033
[1], 0.00457 µM	1.01 ± 0.046
[1], 0.01372 µM	0.977 ± 0.06
[1], 0.04115 µM	0.965 ± 0.084
[1], 0.1235 µM	0.97 ± 0.056
[1], 0.3704 µM	0.946 ± 0.051
[1], 1.111 µM	0.941 ± 0.057
[1], 3.333 µM	0.903 ± 0.042
[1], 10 µM	0.901 ± 0.059
[2], 0.00017 µM	1.01 ± 0.024
[2], 0.00051 µM	1.05 ± 0.018
[2], 0.00152 µM	1.02 ± 0.051
[2], 0.00457 µM	1.06 ± 0.026
[2], 0.01372 µM	1.01 ± 0.037
[2], 0.04115 µM	0.994 ± 0.046
[2], 0.1235 µM	1.02 ± 0.035
[2], 0.3704 µM	1.01 ± 0.055
[2], 1.111 µM	0.848 ± 0.15
[2], 3.333 µM	0.836 ± 0.096
[2], 10 µM	0.68 ± 0.031
[3], 0.00017 µM	1.05 ± 0.044
[3], 0.00051 µM	1.07 ± 0.064
[3], 0.00152 µM	1.09 ± 0.089
[3], 0.00457 µM	1.11 ± 0.064
[3], 0.01372 µM	1.07 ± 0.058
[3], 0.04115 µM	1.07 ± 0.07
[3], 0.1235 µM	1.1 ± 0.044
[3], 0.3704 µM	1.07 ± 0.044
[3], 1.111 µM	1.08 ± 0.052
[3], 3.333 µM	1.09 ± 0.039
[3], 10 µM	0.997 ± 0.032
[4], 0.00017 µM	1.06 ± 0.04
[4], 0.00051 µM	0.9606 ± 0.0037
[4], 0.00152 µM	1.01 ± 0.037
[4], 0.00457 µM	1.02 ± 0.037
[4], 0.01372 µM	0.924 ± 0.043
[4], 0.04115 µM	0.931 ± 0.05
[4], 0.1235 µM	0.987 ± 0.026
[4], 0.3704 µM	0.909 ± 0.051
[4], 1.111 µM	0.902 ± 0.014
[4], 3.333 µM	0.904 ± 0.042
[4], 10 µM	0.913 ± 0.026
[5], 0.00017 µM	1.08 ± 0.056
[5], 0.00051 µM	1.06 ± 0.021
[5], 0.00152 µM	1.07 ± 0.013
[5], 0.00457 µM	1.02 ± 0.013
[5], 0.01372 µM	0.975 ± 0.013
[5], 0.04115 µM	0.951 ± 0.033
[5], 0.1235 µM	1.05 ± 0.04
[5], 0.3704 µM	0.996 ± 0.015
[5], 1.111 µM	1.05 ± 0.029
[5], 3.333 µM	1.02 ± 0.024
[5], 10 µM	1.01 ± 0.041
[6], 0.00017 µM	1.05 ± 0.051
[6], 0.00051 µM	1.08 ± 0.022
[6], 0.00152 µM	1.07 ± 0.08
[6], 0.00457 µM	1.07 ± 0.032
[6], 0.01372 µM	1.06 ± 0.069
[6], 0.04115 µM	1.07 ± 0.061
[6], 0.1235 µM	1.08 ± 0.067
[6], 0.3704 µM	1.06 ± 0.087
[6], 1.111 µM	1.03 ± 0.087
[6], 3.333 µM	1.06 ± 0.086
[6], 10 µM	1.08 ± 0.096
[7], 0.00017 µM	1.08 ± 0.025
[7], 0.00051 µM	1.09 ± 0.016
[7], 0.00152 µM	1.05 ± 0.033
[7], 0.00457 µM	1.1 ± 0.033
[7], 0.01372 µM	1.07 ± 0.026
[7], 0.04115 µM	1.091 ± 0.0089
[7], 0.1235 µM	1.06 ± 0.038
[7], 0.3704 µM	1.05 ± 0.038
[7], 1.111 µM	1.05 ± 0.046
[7], 3.333 µM	1.02 ± 0.053
[7], 10 µM	0.2547 ± 0.0024
[8], 0.00017 µM	1.09 ± 0.025
[8], 0.00051 µM	1.1 ± 0.046
[8], 0.00152 µM	1.099 ± 0.0076
[8], 0.00457 µM	1.11 ± 0.021
[8], 0.01372 µM	1.1 ± 0.033
[8], 0.04115 µM	1.08 ± 0.017
[8], 0.1235 µM	1.067 ± 0.0078
[8], 0.3704 µM	1.07 ± 0.036
[8], 1.111 µM	1.03 ± 0.037
[8], 3.333 µM	0.984 ± 0.016
[8], 10 µM	0.496 ± 0.058
[9], 0.00017 µM	1.07 ± 0.025
[9], 0.00051 µM	1.1 ± 0.016
[9], 0.00152 µM	1.05 ± 0.019
[9], 0.00457 µM	1.03 ± 0.017
[9], 0.01372 µM	0.986 ± 0.078
[9], 0.04115 µM	1.05 ± 0.055
[9], 0.1235 µM	1.04 ± 0.077
[9], 0.3704 µM	0.982 ± 0.028
[9], 1.111 µM	0.891 ± 0.033
[9], 3.333 µM	0.629 ± 0.035
[9], 10 µM	0.519 ± 0.032
[10], 0.00017 µM	0.987 ± 0.012
[10], 0.00051 µM	0.982 ± 0.021
[10], 0.00152 µM	0.998 ± 0.015
[10], 0.00457 µM	0.974 ± 0.022
[10], 0.01372 µM	0.96 ± 0.016
[10], 0.04115 µM	0.922 ± 0.012
[10], 0.1235 µM	0.953 ± 0.021
[10], 0.3704 µM	0.936 ± 0.03
[10], 1.111 µM	0.855 ± 0.043
[10], 3.333 µM	0.918 ± 0.031
[10], 10 µM	0.781 ± 0.032
[11], 0.00017 µM	1.057 ± 0.0047
[11], 0.00051 µM	1.06 ± 0.011
[11], 0.00152 µM	1.07 ± 0.0054
[11], 0.00457 µM	1.07 ± 0.018
[11], 0.01372 µM	1.06 ± 0.034
[11], 0.04115 µM	1.059 ± 0.0094
[11], 0.1235 µM	1.064 ± 0.0048
[11], 0.3704 µM	1.06 ± 0.019
[11], 1.111 µM	1.05 ± 0.028
[11], 3.333 µM	1.03 ± 0.011
[11], 10 µM	1.06 ± 0.023
[12], 0.00017 µM	1.08 ± 0.03
[12], 0.00051 µM	1.16 ± 0.045
[12], 0.00152 µM	1.19 ± 0.046
[12], 0.00457 µM	1.14 ± 0.062
[12], 0.01372 µM	1.15 ± 0.018
[12], 0.04115 µM	1.18 ± 0.071
[12], 0.1235 µM	1.18 ± 0.055
[12], 0.3704 µM	1.21 ± 0.079
[12], 1.111 µM	1.24 ± 0.055
[12], 3.333 µM	1.16 ± 0.1
[12], 10 µM	1.12 ± 0.056
